Laboratory results reported in publication PMC7734281, “Functionalized Oxoindolin Hydrazine Carbothioamide Derivatives as Highly Potent Inhibitors of Nucleoside Triphosphate Diphosphohydrolases” (Frontiers in Pharmacology, 2020).

How the values were obtained:
h-NTPDase8 = target: T1, h-NTPDase8 (Homo sapiens, UniProt Q5MY95); assay: h-NTPDase8 inhibition, malachite green assay; format: biochemical; conditions: for inhibition at 100 µM: compound 100 µM; for IC50: ATP 100 µM substrate, mean ± SEM of three independent experiments
T1 construct: made in house; host or cells: COS-7 cells, transient transfection; crude protein extract after sonication
T1 sequence (Q5MY95 1-495): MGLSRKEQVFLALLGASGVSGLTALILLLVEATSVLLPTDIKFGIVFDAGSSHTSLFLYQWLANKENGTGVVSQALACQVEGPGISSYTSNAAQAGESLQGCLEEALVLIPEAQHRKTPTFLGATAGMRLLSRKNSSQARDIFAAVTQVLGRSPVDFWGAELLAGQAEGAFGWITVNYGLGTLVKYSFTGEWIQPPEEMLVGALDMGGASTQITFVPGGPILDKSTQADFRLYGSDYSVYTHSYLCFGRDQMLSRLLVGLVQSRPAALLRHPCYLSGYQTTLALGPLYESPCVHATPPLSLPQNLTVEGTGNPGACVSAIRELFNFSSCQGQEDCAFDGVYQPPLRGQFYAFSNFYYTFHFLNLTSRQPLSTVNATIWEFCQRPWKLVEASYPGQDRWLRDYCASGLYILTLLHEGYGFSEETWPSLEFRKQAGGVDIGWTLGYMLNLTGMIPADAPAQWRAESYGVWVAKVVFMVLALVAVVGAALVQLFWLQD
Protocol: (§1) COS-7 cells were transfected with plasmids expressing human or mouse NTPDases1, -2, -3, and -8 as previously described ([Levesque et al., 2007]; [Lecka et al., 2014]) Briefly, the confluent cells were transferred to Dulbecco’s Modified Eagle’s Medium containing no fetal bovine serum. Then, these cells were incubated with plasmid DNA (6 µg) and Lipofectamine reagent (24 µl) at 37°C. After 5 h, transfection was terminated with the addition of an equal volume of DMEM/F-12 (supplemented with 20% FBS) and cells were collected by harvesting after 40–72 h.
(§2) To prepare protein extracts, transfected COS-7 cells were washed three times with tris-saline buffer while temperature was maintained at 4°C. Then cells were scraped and resuspended in harvesting buffer containing 95 mM NaCl, 45 mM tris and 0.1 mM phenylmethylsulfonyl fluoride (pH 7.5). Cells were again washed twice by centrifugation for 5 min at 300 × g at 4°C and then resuspended in harvesting buffer (supplemented with 10 μg ml aprotinin). Following sonication, cellular debris was isolated by 10 min centrifugation at 300 g at 4°C. Subsequently, supernatant was removed very carefully and protein concentration was determined by using Bradford microplate assay while using the bovine serum albumin as a standard ([Bradford, 1976]).
(§3) The inhibitory effects of synthesized compounds on h-NTPDase1, -2, -3, and -8 were determined as described previously, although with slight modifications ([Martín-Satué et al., 2009]). Assay was conducted in a reaction medium containing 50 mM tris-HCl and 5 mM CaCl2 (pH 7.4). All the test compounds were dissolved in dimethyl sulfoxide (DMSO, 10%) and initially screened at a concentration of 100 µM. A reaction mixture containing 55 µl of assay buffer, 10 µl of test compound solution and 10 µl of h-NTPDase1 (58 ng/well) or h-NTPDase2 (79 ng/well) or h-NTPDase3 (163 ng/well) or h-NTPDase8 (66 ng/well) was incubated at 37°C for 10 min. Following the incubation, a 10 µl solution of adenosine triphosphate (ATP, 100 µm) was added as substrate and reaction mixture was again incubated for 15 min at 37°C. The reaction was stopped by adding malachite green reagent (15 µl) and placed at room temperature for 4 to 6 min. Finally, absorbance was measured at 630 nm by using Omega FLUOstar microplate reader (BMG Labtech, Ortenberg, Germany) and % inhibitions were calculated. For compounds showing more than 50% inhibition of any isozyme, dose response curves were generated and their IC50 values were determined. Three separate enzyme inhibition assays were carried out in triplicate and dose-response curve were generated by using PRISM 5.0 (GraphPad, San Diego, United States).

h-NTPDase3 = target: T2, h-NTPDase3 (Homo sapiens, UniProt O75355); assay: h-NTPDase3 inhibition, malachite green assay; format: biochemical; conditions: for inhibition at 100 µM / Ki / IC50: human NTPDase3; for inhibition at 100 µM: compound 100 µM; for Mode of inhibition of h-NTPDase3: Lineweaver-Burk plot; for IC50: ATP 100 µM substrate, mean ± SEM of three independent experiments
T2 construct: made in house; host or cells: COS-7 cells, transient transfection; crude protein extract after sonication
T2 sequence (O75355 1-529): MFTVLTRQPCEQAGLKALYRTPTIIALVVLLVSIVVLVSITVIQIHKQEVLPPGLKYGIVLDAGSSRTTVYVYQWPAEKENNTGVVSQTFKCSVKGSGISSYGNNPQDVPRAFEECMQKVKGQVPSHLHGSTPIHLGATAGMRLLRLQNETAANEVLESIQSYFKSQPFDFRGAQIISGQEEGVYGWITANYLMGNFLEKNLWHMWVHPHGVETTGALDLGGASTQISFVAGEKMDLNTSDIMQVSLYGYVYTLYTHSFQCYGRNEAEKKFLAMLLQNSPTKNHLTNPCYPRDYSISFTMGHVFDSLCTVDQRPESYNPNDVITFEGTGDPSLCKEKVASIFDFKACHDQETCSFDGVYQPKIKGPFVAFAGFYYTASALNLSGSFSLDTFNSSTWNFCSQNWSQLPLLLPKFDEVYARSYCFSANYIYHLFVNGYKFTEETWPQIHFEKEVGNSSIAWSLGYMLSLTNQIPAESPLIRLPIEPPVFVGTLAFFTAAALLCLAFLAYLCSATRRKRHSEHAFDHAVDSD
Protocol: as §1, §2, §3

SMILES | inhibition at 100 µM (h-NTPDase8) | inhibition at 100 µM (h-NTPDase3) | melting point | further results
O=C1Nc2ccccc2/C1=N/NC(=S)Nc1ccccc1 [8a, (Z)-2-(2-oxoindolin-3-ylidene)-N-phenylhydrazine-1-carbothioamide] | 24% | 20% |  | 
O=C1Nc2ccccc2/C1=N/NC(=S)Nc1ccc([N+](=O)[O-])cc1 [8b, (Z)-N-(4-nitrophenyl)-2-(2-oxoindolin-3-ylidene)hydrazine-1-carbothioamide] |  |  | 271 to 272 °C | 
O=C1Nc2ccccc2/C1=N/NC(=S)Nc1ccc(Cl)cc1 [8c, (Z)-N-(4-chlorophenyl)-2-(2-oxoindolin-3-ylidene)hydrazine-1-carbothioamide] |  |  | 240 to 244 °C | Ki (h-NTPDase8): 0.11 µM; IC50 (h-NTPDase8): 0.24 ± 0.02 µM; Times more active than standard inhibitor suramin (comparison of IC50s), h-NTPDase3 (h-NTPDase3; IC50 ratio versus suramin): 22 times; Mode of inhibition of h-NTPDase3 (h-NTPDase3): competitive; Ki (h-NTPDase3): 0.08 µM; IC50 (h-NTPDase3): 0.19 ± 0.02 µM
O=C1Nc2ccccc2/C1=N/NC(=S)Nc1ccc(F)cc1 [8d, (Z)-N-(4-fluorophenyl)-2-(2-oxoindolin-3-ylidene)hydrazine-1-carbothioamide] | 33% | 46% | 255 to 256 °C | 
COc1cccc(NC(=S)N/N=C2\C(=O)Nc3ccccc32)c1 [8e, (Z)-N-(3-methoxyphenyl)-2-(2-oxoindolin-3-ylidene)hydrazine-1-carbothioamide] |  |  | 220 to 224 °C | 
O=C1Nc2ccccc2/C1=N/NC(=S)NCc1ccccc1 [8f, (Z)-N-benzyl-2-(2-oxoindolin-3-ylidene)hydrazine-1-carbothioamide] | < 50% |  | 206 to 208 °C | 
O=C1Nc2ccccc2/C1=N/NC(=S)Nc1cccc(Cl)c1 [8g, (Z)-N-(3-chlorophenyl)-2-(2-oxoindolin-3-ylidene)hydrazine-1-carbothioamide] | 7% | 17% | 235 to 236 °C | 
Cc1ccc(NC(=S)N/N=C2\C(=O)Nc3ccccc32)cc1 [8h, (Z)-2-(2-oxoindolin-3-ylidene)-N-(p-tolyl)hydrazine-1-carbothioamide] | 22% | 26% |  | 
Cc1cccc(C)c1NC(=S)N/N=C1\C(=O)Nc2ccccc21 [8i, (Z)-N-(2,6-dimethylphenyl)-2-(2-oxoindolin-3-ylidene)hydrazine-1-carbothioamide] | 17% | 25% | 250 to 252 °C | 
COc1ccc(OC)c(NC(=S)N/N=C2\C(=O)Nc3ccccc32)c1 [8j, (Z)-N-(2,5-dimethoxyphenyl)-2-(2-oxoindolin-3-ylidene)hydrazine-1-carbothioamide] | 19% | 34% | 245 to 248 °C | 
COc1ccc(NC(=S)NNC2=c3ccccc3=NC2=O)cc1 [8k, (Z)-N-(4-methoxyphenyl)-2-(2-oxoindolin-3-ylidene)hydrazine-1-carbothioamide] | 46% | 19% |  | 
O=C1Nc2ccccc2/C1=N/NC(=S)Nc1c(F)cccc1F [8l, (Z)-N-(2,6-difluorophenyl)-2-(2-oxoindolin-3-ylidene)hydrazine-1-carbothioamide] | < 50% |  | 243 to 244 °C | 
CCNC(=S)N/N=C1\C(=O)Nc2ccccc21 [8m, (Z)-N-ethyl-2-(2-oxoindolin-3-ylidene)hydrazine-1-carbothioamide] | 38% |  | 190 to 194 °C | Mode of inhibition of h-NTPDase3 (h-NTPDase3): non-competitive; Ki (h-NTPDase3): 0.16 µM; IC50 (h-NTPDase3): 0.38 ± 0.03 µM
Cc1ccc(C(=O)Nc2ccc(S(=O)(=O)O)c3cc(S(=O)(=O)O)cc(S(=O)(=O)O)c23)cc1NC(=O)c1cccc(NC(=O)Nc2cccc(C(=O)Nc3cc(C(=O)Nc4ccc(S(=O)(=O)O)c5cc(S(=O)(=O)O)cc(S(=O)(=O)O)c45)ccc3C)c2)c1 [Suramin, reference compound] |  |  |  | IC50 (h-NTPDase8): > 100 µM; Ki (h-NTPDase3): 1.85 µM; IC50 (h-NTPDase3): 4.31 ± 0.41 µM
